Experimental data reported in ChEMBL document CHEMBL3046569 (Med Chem Res, 2011).

Legend:
[1] = Therapeutic index, ratio of IC50 for human H9 cells to EC50 for HIV1; format: cell-based; settings: for pTI: h9; for selectivity ratio: H9 cells, read-out: Ratio IC50/EC50
[2] = system: Human immunodeficiency virus 1; test: Antiviral activity against Human immunodeficiency virus 1 infected human H9 cells assessed as inhibition of viral replication; format: functional, organism-based; settings: Human immunodeficiency virus 1, H9

EC50 ([2]; read-out: pEC50 (converted)) [µM]	EC50 ([2]; read-out: EC50) [µM]	Compound	pTI [1]	selectivity ratio [1]
2.1	–	C=C(C)[C@@H]1CC[C@]2(COC(=O)CC3(CC(=O)O)CCCC3)CC[C@]3(C)[C@H](CC[C@@H]4[C@@]5(C)CC[C@H](O)C(C)(C)[C@@H]5CC[C@]43C)[C@@H]12	-0.785	–
–	–	C=C(C)[C@@H]1CC[C@]2(CO)CC[C@]3(C)[C@H](CC[C@@H]4[C@@]5(C)CC[C@H](O)C(C)(C)[C@@H]5CC[C@]43C)[C@@H]12 [BETULIN]	-0.279	1.9
1.6	–	CC(C)[C@@H]1CC[C@]2(COC(=O)CCCC(=O)O)CC[C@]3(C)[C@H](CC[C@@H]4[C@@]5(C)CC[C@H](OC(=O)CCCC(=O)O)C(C)(C)[C@@H]5CC[C@]43C)[C@@H]12	-1.23	–
1.8	–	CC(C)[C@@H]1CC[C@]2(C(=O)O)CC[C@]3(C)[C@H](CC[C@@H]4[C@@]5(C)CC[C@H](OC(=O)CCCC(=O)O)C(C)(C)[C@@H]5CC[C@]43C)[C@@H]12	-0.875	–
4.57	–	C=C(C)[C@@H]1CC[C@]2(NOC(=O)CCC(C)(C)CC(=O)O)CC[C@]3(C)[C@H](CC[C@@H]4[C@@]5(C)CC/C(=N\OC(=O)CCC(C)(C)CC(=O)O)C(C)(C)[C@@H]5CC[C@]43C)[C@@H]12	-0.532	–
3.2	–	C=C(C)[C@@H]1CC[C@]2(C(=O)OC(=O)N3CCOCC3)CC[C@]3(C)[C@H](CC[C@@H]4[C@@]5(C)CC[C@H](O)C(C)(C)[C@@H]5CC[C@]43C)[C@@H]12	-0.556	–
0.059	–	CC(CC(=O)O)CC(=O)OC[C@]12CC[C@@H](C(C)C)[C@@H]1[C@H]1CC[C@@H]3[C@@]4(C)CC[C@H](OC(=O)CC(C)CC(=O)O)C(C)(C)[C@@H]4CC[C@@]3(C)[C@]1(C)CC2 (stereo partly specified)	-2.512	–
0.5	–	CC(C)[C@@H]1CC[C@]2(C(=O)OCc3ccccc3)CC[C@]3(C)[C@H](CC[C@@H]4[C@@]5(C)CC[C@H](OC(=O)CCCC(=O)O)C(C)(C)[C@@H]5CC[C@]43C)[C@@H]12	-1.279	–
0.5	–	CC(C)[C@@H]1CC[C@]2(C(=O)O)CC[C@]3(C)[C@H](CC[C@@H]4[C@@]5(C)CC[C@H](OC(=O)C67CCC(C)(C(=O)O6)C7(C)C)C(C)(C)[C@@H]5CC[C@]43C)[C@@H]12 (stereo partly specified)	-0.301	–
6.59	–	CC(C)[C@@H]1CC[C@]2(C(=O)OC(=O)OCN(C)C)CC[C@]3(C)[C@H](CC[C@@H]4[C@@]5(C)CC[C@H](O)C(C)(C)[C@@H]5CC[C@]43C)[C@@H]12	0	–
0.0003	0.00035	C=C(C)[C@@H]1CC[C@]2(C(=O)O)CC[C@]3(C)[C@H](CC[C@@H]4[C@@]5(C)CC[C@H](OC(=O)CC(C)(C)C(=O)O)C(C)(C)[C@@H]5CC[C@]43C)[C@@H]12 [BEVIRIMAT]	-4.301	20000
0.0054	–	C=C(COC(=O)CC1(CC(=O)O)CCCC1)[C@@H]1CC[C@]2(COC(=O)CC3(CC(=O)O)CCCC3)CC[C@]3(C)[C@H](CC[C@@H]4[C@@]5(C)CC[C@H](OC(=O)CC6(CC(=O)O)CCCC6)C(C)(C)[C@@H]5CC[C@]43C)[C@@H]12	-3.076	–
0.23	–	CC(C)[C@@H]1CC[C@]2(C(=O)OCc3ccccc3)CC[C@]3(C)[C@H](CC[C@@H]4[C@@]5(C)CC[C@H](OC(=O)CC(C)(C)C(=O)O)C(C)(C)[C@@H]5CC[C@]43C)[C@@H]12	-1.748	–
1.5	–	CC(C)CC(=O)O[C@H]1CC[C@]2(C)[C@H]3CC[C@@H]4[C@H]5[C@H](C(C)C)CC[C@]5(C(=O)O)CC[C@@]4(C)[C@]3(C)CC[C@H]2C1(C)C	-1.748	–
4.3	–	C=C(C)[C@@H]1CC[C@]2(COC(=O)CC3(CC(=O)O)CCCC3)CC[C@]3(C)[C@H](CC[C@@H]4[C@@]5(C)CCC(=O)C(C)(C)[C@@H]5CC[C@]43C)[C@@H]12	-0.477	–
0.045	–	C=C(COC(=O)CC(C)(C)CC(=O)O)[C@@H]1CC[C@]2(COC(=O)CC(C)(C)CC(=O)O)CC[C@]3(C)[C@H](CC[C@@H]4[C@@]5(C)CC[C@H](OC(=O)CC(C)(C)CC(=O)O)C(C)(C)[C@@H]5CC[C@]43C)[C@@H]12	-2.59	–
0.0039	–	C=C(C)[C@@H]1CC[C@]2(COC(=O)CC(C)CC(=O)O)CC[C@]3(C)[C@H](CC[C@@H]4[C@@]5(C)CC[C@H](OC(=O)CC(C)CC(=O)O)C(C)(C)[C@@H]5CC[C@]43C)[C@@H]12 (stereo partly specified)	-3.725	–
–	–	C=C(C)[C@@H]1CC[C@]2(C(=O)O)CC[C@]3(C)[C@H](CC[C@@H]4[C@@]5(C)CC[C@H](O)C(C)(C)[C@@H]5CC[C@]43C)[C@@H]12 (stereo in doubt; 1) [BETULINIC ACID]	-0.969	–

Compound	EC50 ([2]; read-out: pEC50 (converted)) [µM]	EC50 ([2]; read-out: EC50) [µM]	pTI [1]	selectivity ratio [1]
C=C(CO)[C@@H]1CC[C@]2(CO)CC[C@]3(C)[C@H](CC[C@@H]4[C@@]5(C)CC[C@H](O)C(C)(C)[C@@H]5CC[C@]43C)[C@@H]12 [30-HYDROXY-BETULIN]	50.8	–	-0.447	–
C=C(C)[C@@H]1CC[C@]2(C(=O)NCCCCCCCC(=O)N[C@@H](CC(C)C)[C@@H](O)CC(=O)O)CC[C@]3(C)[C@H](CC[C@@H]4[C@@]5(C)CC[C@H](O)C(C)(C)[C@@H]5CC[C@]43C)[C@@H]12	0.33	–	-1.544	–
C=C(C)[C@@H]1CC[C@]2(COC(=O)CC(C)(CC)CC(=O)O)CC[C@]3(C)[C@H](CC[C@@H]4[C@@]5(C)CC[C@H](OC(=O)CC(C)(CC)CC(=O)O)C(C)(C)[C@@H]5CC[C@]43C)[C@@H]12 (stereo partly specified)	0.0053	–	-3.541	–
C=C(C)[C@@H]1CC[C@]2(/C=N/O)CC[C@]3(C)[C@H](CC[C@@H]4[C@@]5(C)CC/C(=N\O)C(C)(C)[C@@H]5CC[C@]43C)[C@@H]12 [BETULIN-3,28-DIOXIME]	1.07	–	-0.708	–
C=C(C)[C@@H]1CC[C@]2(C(=O)O)CC[C@]3(C)[C@H](CC[C@@H]4[C@@]5(C)CC[C@H](OC(=O)C(C)(C)CC(=O)O)C(C)(C)[C@@H]5CC[C@]43C)[C@@H]12	2.7	–	-0.826	–
C=C(C)[C@@H]1CC[C@]2(C(=O)O)CC[C@]3(C)[C@H](CC[C@@H]4[C@@]5(C)CC[C@H](OC(=O)CC(C)(C)CC(=O)O)C(C)(C)[C@@H]5CC[C@]43C)[C@@H]12	0.0023	–	–	–
C=C(C)[C@@H]1CC[C@]2(COC(=O)CC(C)(C)CC(=O)O)CC[C@]3(C)[C@H](CC[C@@H]4[C@@]5(C)CC[C@H](O)C(C)(C)[C@@H]5CC[C@]43C)[C@@H]12	3.6	–	-0.892	–
C=C(C)[C@@H]1CC[C@]2(COC(=O)CC(C)(C)CC(=O)O)CC[C@]3(C)[C@H](CC[C@@H]4[C@@]5(C)CC[C@H](OC(=O)CC(C)(C)CC(=O)O)C(C)(C)[C@@H]5CC[C@]43C)[C@@H]12	0.000659	–	-4.333	–
C=C(C)[C@@H]1CC[C@]2(C(=O)O)CC[C@]3(C)[C@H](CC[C@@H]4[C@@]5(C)CC[C@H](OC(=O)COCC(=O)O)C(C)(C)[C@@H]5CC[C@]43C)[C@@H]12	0.01	–	-3.069	–
CC(C)[C@@H]1CC[C@]2(C(=O)O)CC[C@]3(C)[C@H](CC[C@@H]4[C@@]5(C)CC[C@H](OC(=O)CC(C)(C)C(=O)O)C(C)(C)[C@@H]5CC[C@]43C)[C@@H]12	0.0003	–	-4.146	–
